Data as given in patent publication US12133901B2, “PSMA ligand targeted compounds and uses thereof” (CASE WESTERN RESERVE UNIVERSITY, priority 2019, dated 2024).
Numbered stars: 1 amine (or outer) side, 2 acyl side, 3 side chain; on linkers, the order of the positions; unused ones are H or OH. Square brackets hold non-standard residues; d marks the D form. Peptide text beside a SMILES is read from it. γGlu = O=C(O)[C@H](CCC(=O)[*:2])N[*:1]; X1 = O=C(C1CCC(CN[*:1])CC1)[*:2]; CO = O=C([*:1])[*:2]; Ahx = NCCCCCC(=O)O

Target: T1, PSMA (Homo sapiens, UniProt Q04609)
T1 construct: LNcap cells were trypsinized and washed with cold Tris buffer; endogenous in cells; host or cells: LNCaP cells (printed 'LNcap'), whole-cell suspension
Test: Competition binding assay against 3H-ZJ24
Conditions: PSMA-expressing LNcap cells, 12 nM 3H-labelled ZJ24, 1 h at 37° C.; read-out: IC50 (concentration of ligand required to inhibit 50% of binding)
Experimental: LNcap cells were trypsinized and washed with cold Tris buffer (0.5 mM). […] Each group was done in triplicate. The mixture was then centrifuged and washed three times with cold PBS. Finally, 4 m L of EcoLume cocktail (MP biomedicals) was added to each sample, and radioactivity was counted by a scintillation counter. The concentration of ligands required to inhibit 50% of binding (IC50) was determined by GraphPad Prism 3.0.

T1 sequence (Q04609 whole entry): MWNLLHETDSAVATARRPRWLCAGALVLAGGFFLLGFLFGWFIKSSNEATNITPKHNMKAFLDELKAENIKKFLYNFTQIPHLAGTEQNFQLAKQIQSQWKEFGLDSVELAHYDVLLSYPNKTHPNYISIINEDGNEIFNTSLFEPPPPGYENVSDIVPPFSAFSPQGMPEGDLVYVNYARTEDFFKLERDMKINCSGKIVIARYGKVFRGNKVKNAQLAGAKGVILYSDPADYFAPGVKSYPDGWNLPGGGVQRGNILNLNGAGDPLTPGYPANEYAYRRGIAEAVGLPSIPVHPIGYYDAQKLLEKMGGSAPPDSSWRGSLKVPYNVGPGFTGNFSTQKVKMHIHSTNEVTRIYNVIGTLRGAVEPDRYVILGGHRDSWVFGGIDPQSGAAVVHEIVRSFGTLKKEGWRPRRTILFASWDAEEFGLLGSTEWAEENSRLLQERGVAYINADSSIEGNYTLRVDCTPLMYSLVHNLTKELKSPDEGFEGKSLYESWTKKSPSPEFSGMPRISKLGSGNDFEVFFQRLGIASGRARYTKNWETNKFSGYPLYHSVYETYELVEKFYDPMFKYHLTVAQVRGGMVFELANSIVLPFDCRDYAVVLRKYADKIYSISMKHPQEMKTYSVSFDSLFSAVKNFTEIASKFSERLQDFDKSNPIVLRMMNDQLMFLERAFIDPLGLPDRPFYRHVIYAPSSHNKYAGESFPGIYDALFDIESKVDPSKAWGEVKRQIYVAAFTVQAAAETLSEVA

Question: `NCCCC[C@H](NC(=O)[C@H](CCC(=O)O)NC(=O)[C@H](CCC(=O)O)NC(=O)[C@H](CCC(=O)O)NC(=O)CCCCCNC(=O)C1CCC(CNC(=O)CC[C@H](NC(=O)N[C@@H](CCC(=O)O)C(=O)O)C(=O)O)CC1)C(=O)N[C@@H](Cc1ccc(O)cc1)C(=O)N[C@@H](CS)C(N)=O` (stereo partly drawn) [CY-PSMA-1, Glu-CO-Glu′-Amc-Ahx-Glu-Glu-Glu-Lys-Tyr-Cys-NH2] ({Glu-CO-γGlu}-[X1][Ahx]EEEKYC-NH2) was tested. Which IC50 did it give?
Answer: The IC50 was 1.69 nM.

Question: With `CSC[C@H](NC(=O)N[C@@H](CCC(=O)O)C(=O)O)C(=O)O` [ZJ24] as the molecule, how does the IC50 read?
Answer: Its IC50 is 8.31 nM.
